Drawing on patent publication US20100190832A1, “Mechanism-based inhibitors of transthyretin amyloidosis: studies with biphenyl ethers and structural templates” (NATIONAL INSTITUTE OF IMMUNOLOGY., priority 2008, published 2010), this text covers remaining activity and inhibition for 51 compounds.

The assay has as its target T1, WT-TTR (Homo sapiens, UniProt P02766).
T1 construct: made in house
The experiment in a line: Stagnant acid-mediated TTR aggregation (fibril formation) assay, turbidity at 340 nm. To be noted: pH 4.4, compound 100 μM, WT-TTR 7.2 μM, pH 4.4, 37° C.; for remaining activity at 100 µM: 72 h, read-out: % FF; for inhibition at 100 µM: read-out: % Inhibition. The format is biochemical. As to the method: Stagnant Acid-Mediated TTR Aggregation Assay.
After 1 h, the samples were diluted with 0.5 ml of 200 mM sodium acetate buffer containing 100 mM KCl and 1 mM EDTA. Samples after mild vortexing were incubated at 37° C. for the desired amount of time without stirring to evaluate the efficacy of the inhibitors. The extent of aggregation was probed by turbidity measurements at 340 nm using Tecan GENios microplate reader. […] The extent of TTR fibril formation in the absence of inhibitor was defined to be 100%. […] All experiments were done in triplicate. […] The IC50 was determined by plotting mean of % inhibition vs log and fitted to sigmoid equation:
The experiments were conducted at 25° C. After 1 h, the samples were diluted with 0.5 mL of 200 mM sodium acetate buffer pH 4.4 containing 100 mM KCl and 1 mM EDTA, vortexed, and incubated at 37° C. for 72 h. […] The stoichiometry of the binding of the inhibitors was determined by HPLC as described by Green et al., N. S. Palaninathan, S, L, Sacchettini, J. e. […] Dissociation constant of binding of these compounds to TTR was determined by fluorescence titration, and data were fitted into the Adair equation for two bind mg.

For `COc1ccc(NC(=S)N(CCCN2CCOCC2)Cc2cccnc2)cc1` [Compound C087-0811], the remaining activity at 100 µM was determined as 98.6% and the inhibition at 100 µM is 1.4%.

On to `COc1ccccc1NC(=S)N(CCCN1CCCCCC1)Cc1cccs1` [Compound C087-0823], for which the remaining activity at 100 µM came to 104% and the inhibition at 100 µM came out at 0%. The like results for `CCc1ccccc1NC(=S)N(CCN(C)C)Cc1cccs1` [Compound C087-0905] were, in that order, 108% and 0%. The like results for `Fc1ccccc1NC(=S)N(CCCN1CCOCC1)Cc1cccnc1` [Compound C087-1168] were, in that order, 99.3% and 0.7%. For `FC(F)(F)c1cccc(NC(=S)N(CCCN2CCCCC2)Cc2cccs2)c1` [Compound C087-1176] the same measures were 86.7% and 13.3%. Consider `O=C(c1cc(-c2ccc(Cl)s2)nc2ccccc12)N1CCOCC1` [Compound C136-0215], for which the remaining activity at 100 µM was found to be 156% and the inhibition at 100 µM stood at 0%. As for `CSC1=NSC2=NC(=O)/C(=C\c3ccc(Cl)cc3)C(=N)N12` [Compound C146-0181], the remaining activity at 100 µM turned out to be 67.1% and the inhibition at 100 µM amounted to 32.9%. For `CSC1=NSC2=NC(=O)/C(=C\c3ccc(O)cc3)C(=N)N12` [Compound C146-0184] the same measures were 72.7% and 27.3%.

Turning to `CSC1=NSC2=NC(=O)/C(=C\c3ccc[nH]3)C(=N)N12` [Compound C146-0661], the remaining activity at 100 µM was determined as 202% and the inhibition at 100 µM was 0%. The like results for `O=C1CCCC2=C1C(c1cccc(O)c1)NC(=S)N2` (centres unmarked) [Compound C157-0040] were, in that order, 106% and 0%.

On to `Cc1nc2c(C(=O)NCCC(C)C)cnn2c(O)c1Cc1ccccc1F` [Compound C218-0295], for which the remaining activity at 100 µM is -86.7% and the inhibition at 100 µM was found to be 91.7%. The like results for `Cc1nc2c(C(=O)NCc3ccc(F)cc3)cnn2c(O)c1Cc1ccccc1F` [Compound C218-0299] were, in that order, 46.9% and 53.1%. For `Cc1cc(C(=O)Nc2cc(Cl)ccc2O)no1` [Compound C226-2564] the same measures were 96.8% and 3.18%.

For `Cc1cc(C(=O)Nc2cccnc2Cl)no1` [Compound C226-2576], the remaining activity at 100 µM came out at 130% and the inhibition at 100 µM came to 0%. The like results for `Oc1ccc(-c2nc3ncccn3c2Nc2ccc(Cl)cc2)cc1` [Compound C239-0727] were, in that order, 135% and 0%.

As to `Cc1ccc2nc(-c3ccc(Cl)s3)c(Nc3ccc(Cl)cc3)n2c1` [Compound C239-0730], the remaining activity at 100 µM worked out at 113% and the inhibition at 100 µM is 0%.

`O=c1c2sccc2n(Cc2ccc(F)cc2Cl)c(=O)n1-c1cc(F)ccc1F` [Compound C241-0192]: the remaining activity at 100 µM is 117% and the inhibition at 100 µM is 0%. The like results for `NN1C(=O)/C(=C\c2ccc(Cl)cc2)NC1=S` [Compound C249-0056] were, in that order, 131% and 0%. For the compound `O=C(CSc1nccn1-c1cccc(Cl)c1)Nc1cccc2ccccc12` [Compound C262-0464], the remaining activity at 100 µM amounted to 122% and the inhibition at 100 µM worked out at 0%. The like results for `Clc1ccc2nc(-c3ccc(Cl)s3)c(NC3CCCCC3)n2c1` [Compound C273-0206] were, in that order, 138% and 0%. In the case of `Cc1ccn2c(Nc3ccc(F)cc3)c(-c3ccccn3)nc2c1` [Compound C273-0218], the remaining activity at 100 µM was 162% and the inhibition at 100 µM was 0%.

Consider `Cc1ccccc1Nc1c(-c2ccc(O)cc2)nc2ccc(Cl)cn12` [Compound C273-0223], for which the remaining activity at 100 µM is 130% and the inhibition at 100 µM is 0%. The like results for `Cc1ccccc1Nc1c(-c2ccc(Cl)s2)nc2ccc(Cl)cn12` [Compound C273-0244] were, in that order, 306% and 0%. For the compound `NC(=O)CSc1ncc(-c2ccc(Cl)cc2)[nH]1` [Compound C290-0041], the remaining activity at 100 µM came to 39.2% and the inhibition at 100 µM was determined as 60.8%. Take `O=C1OC(c2ccc(Cl)cc2Cl)=N/C1=C\c1cccs1` [Compound K075-5819]: the remaining activity at 100 µM is 136% and the inhibition at 100 µM was 0%. The like results for `O=C(O)C1CSC(c2ccc(Cl)cc2)N1` (centres unmarked) [Compound K085-0001] were, in that order, 142% and 0%. The like results for `O=C(O)C1CSC(c2ccc([N+](=O)[O-])cc2)N1` (centres unmarked) [Compound K085-0004] were, in that order, 119% and 0%. For `O=C(O)C1CSC(c2c(F)cccc2Cl)N1` (centres unmarked) [Compound K085-0006] the same measures were 20.3% and 79.7%. For the compound `COc1ccc(C2NC(C(=O)O)CS2)cc1OC` (centres unmarked) [Compound K085-0007], the remaining activity at 100 µM is 129% and the inhibition at 100 µM amounted to 0%. For `O=C(O)C1CSC(c2ccc(O)cc2)N1` (centres unmarked) [Compound K085-0008], the remaining activity at 100 µM is 120% and the inhibition at 100 µM worked out at 0%.

As for `O=C(O)C1CSC(c2ccc(Cl)c(Cl)c2)N1` (centres unmarked) [Compound K085-0014], the remaining activity at 100 µM turned out to be 102% and the inhibition at 100 µM was 0%.

Turning to `O=C(O)C1CSC(c2ccc(Cl)cc2Cl)N1` (centres unmarked) [Compound K085-0018], the remaining activity at 100 µM came out at 22.3% and the inhibition at 100 µM was found to be 77.7%. For `O=C(O)C1CSC(c2cccnc2)N1` (centres unmarked) [Compound K085-0021] the same measures were 144% and 0%. The like results for `CCCCC1NC(C(=O)O)CS1` (centres unmarked) [Compound K085-0025] were, in that order, 128% and 0%. For `Cc1ccc(C2NC(C(=O)O)CS2)cc1` (centres unmarked) [Compound K085-0026] the same measures were 14.3% and 85.7%. Take `COc1cc(C2NC(C(=O)O)CS2)ccc1O` (centres unmarked) [Compound K085-0027]: the remaining activity at 100 µM turned out to be 116% and the inhibition at 100 µM is 0%.

In the case of `O=C1OC(c2ccc(Cl)cc2Cl)=N/C1=C/c1ccc(Cl)c(Cl)c1` [Compound K088-1297], the remaining activity at 100 µM worked out at 138% and the inhibition at 100 µM is 0%. For `O=C1OC(/C=C/c2ccc(Cl)cc2Cl)=NC/1=C\c1cccs1` [Compound K088-1892] the same measures were 294% and 0%. For `O=c1c2ccccc2nc2sc(Nc3ccc(F)cc3F)nn12` [Compound K284-2958], the remaining activity at 100 µM is -2.03% and the inhibition at 100 µM came out at 102%. For `COC(=O)c1sc(=S)n(-c2ccc(Cl)c(Cl)c2)c1N` [Compound K286-4369] the same measures were 84.5% and 15.6%. The like results for `O=C(NCc1ccco1)c1cc(Sc2cccc(Cl)c2)nc2ccccc12` [Compound K784-7215] were, in that order, 60.7% and 39.3%. The like results for `O=C(NC1CC1)c1cc(Sc2cccc(Cl)c2)nc2ccccc12` [Compound K784-7224] were, in that order, 41.8% and 58.2%. Take `CCOc1cccc2c1OC(c1cccc(Cl)c1)N1N=C(c3cccs3)CC21` (centres unmarked) [Compound K805-0132]: the inhibition at 100 µM came out at 0%.

Regarding `Clc1ccccc1C1CC(c2cccs2)Nc2nnnn21` (centres unmarked) [Compound K832-3346], the remaining activity at 100 µM was 0% and the inhibition at 100 µM came out at 100%.

Regarding `CCC(=O)NC(c1ccc2c(c1)OCO2)c1cc(Cl)c2cccnc2c1O` (centres unmarked) [Compound K839-0017], the remaining activity at 100 µM was 41.9% and the inhibition at 100 µM was found to be 58.1%.

As for `CC(C)C(=O)NC(c1ccccc1)c1ccc2cccnc2c1O` (centres unmarked) [Compound K839-0067], the remaining activity at 100 µM was determined as 4.6% and the inhibition at 100 µM was 95.4%. For `O=C(NC(c1ccccc1)c1cc(Cl)c2cccnc2c1O)c1cccnc1` (centres unmarked) [Compound K839-0113] the same measures were 29.6% and 70.4%. For `COc1cccc(C(=O)NC(c2ccccc2)c2cc(Cl)c3cccnc3c2O)c1` (centres unmarked) [Compound K839-0116] the same measures were 34.7% and 65.3%. For `O=C(NC(c1cccc([N+](=O)[O-])c1)c1cc(Cl)c2cccnc2c1O)c1cccnc1` (centres unmarked) [Compound K839-0117] the same measures were 72.8% and 27.2%. Regarding `O=C(NC(c1ccco1)c1cc(Cl)c2cccnc2c1O)c1cccnc1` (centres unmarked) [Compound K839-0124], the remaining activity at 100 µM worked out at 36.7% and the inhibition at 100 µM was determined as 63.3%. Take `CCOC(=O)c1sc(=S)n(-c2ccc(Br)cc2)c1N` [Compound R052-0946]: the remaining activity at 100 µM amounted to 164% and the inhibition at 100 µM turned out to be 0%.
